Laboratory results from patent US8618175B2, “Ultrasound medical gel composition etherified hydroxyethylcellulose” (Brussels Ventures Corp., priority 2010, dated 2013).

Test: Spreading ability of solvents, drop on Standard No. 1 filter paper
Format: physicochemical
Conditions: for Drop Diameter After Set period of time 0(h) / Drop Diameter After Set period of time 0.5(h) / Drop Diameter After Set period of time 1(h) / Drop Diameter After Set period of time 8(h): average of 3 trials
Protocol: The spreading ability of various solvents was measured. Solvents including an antimicrobial agent, as well as solvents without an antimicrobial agent, were tested. Benzalkonium chloride was used as an antimicrobial agent. Spreading ability was measured by dropping one drop of liquid onto Standard No. 1 filter paper, and measuring the diameter of each drop at various time periods. The results are shown below in table 3, and reflect the average results obtained after 3 trials for each sample.

Row | Compound | % Increase in drop diameter after 8 h (antimicrobial agent 0 wt %) | Drop Diameter After Set period of time 0(h) (antimicrobial agent 0 wt %) | Drop Diameter After Set period of time 0.5(h) (antimicrobial agent 0 wt %) | Drop Diameter After Set period of time 1(h) (antimicrobial agent 0 wt %) | Drop Diameter After Set period of time 8(h) (antimicrobial agent 0 wt %) | % Increase in drop diameter after 8 h (benzalkonium chloride 3.2 wt %) | Drop Diameter After Set period of time 0(h) (benzalkonium chloride 3.2 wt %) | Drop Diameter After Set period of time 0.5(h) (benzalkonium chloride 3.2 wt %) | Drop Diameter After Set period of time 1(h) (benzalkonium chloride 3.2 wt %) | Drop Diameter After Set period of time 8(h) (benzalkonium chloride 3.2 wt %)
1 | OCC(O)CO [Glycerin 99%, Glycerin] | 357% | 7.0 | 22.3 | 23.6 | 32.0 | 632% | 4.0 | 22.6 | 24.0 | 29.3
2 | OCCCO [Propanediol (Zemea ™), Propanediol] | 263% | 10.6 | 32 | 33.5 | 38.5 | 249% | 10.6 | 30.3 | 32.3 | 37.0
3 | CC(O)CO (stereo not drawn) [Propylene Glycol] | 120% | 10.0 | 28.0 | 29.0 | 22.0 | 100% | 12.3 | 28.0 | 29.0 | 24.6
